ChEMBL document CHEMBL1201862, “PubChem BioAssay data set” (2004)
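Tested at 5 concentrations; 48 h exposure; 96-well plates; endpoints linearly interpolated, else capped at highest concentration. At the GI50, growth is halved.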 Active and inactive are the calls of the source. Rule as the data show it: active = GI50 up to about 1.1 µM and inactive = higher.

How the values were obtained:
Assay in all cases: DTP human tumour cell line panel, 48 h
786-0 = test system: 786-0
A498 = test system: A498
A549 = test system: A549
ACHN = test system: ACHN
BT-549 = test system: BT-549
CAKI-1 = test system: CAKI-1
CCRF-CEM = test system: CCRF-CEM
COLO 205 = test system: COLO 205
EKVX = test system: EKVX
HCT-116 = test system: HCT-116
HCT-15 = test system: HCT-15
HL-60 = test system: HL-60
HOP-62 = test system: HOP-62
HOP-92 = test system: HOP-92
HT-29 = test system: HT-29
Hs-578T = test system: Hs-578T
IGROV-1 = test system: IGROV-1
K562 = test system: K562
KM12 = test system: KM12
LOX IMVI = test system: LOX IMVI
M14 = test system: M14
MCF7 = test system: MCF7
MDA-MB-231 = test system: MDA-MB-231
MDA-MB-435 = test system: MDA-MB-435
MDA-N = test system: MDA-N
MOLT-4 = test system: MOLT-4
Malme-3M = test system: Malme-3M
NCI-H226 = test system: NCI-H226
NCI-H23 = test system: NCI-H23
NCI-H460 = test system: NCI-H460
NCI-H522 = test system: NCI-H522
NCI/ADR-RES = test system: NCI/ADR-RES
OVCAR-3 = test system: OVCAR-3
OVCAR-4 = test system: OVCAR-4
OVCAR-5 = test system: OVCAR-5
OVCAR-8 = test system: OVCAR-8
PC-3 = test system: PC-3
RPMI-8226 = test system: RPMI-8226
RXF 393 = test system: RXF 393
SF-268 = test system: SF-268
SF-295 = test system: SF-295
SF-539 = test system: SF-539
SK-MEL-2 = test system: SK-MEL-2
SK-MEL-5 = test system: SK-MEL-5
SK-OV-3 = test system: SK-OV-3
SNB-19 = test system: SNB-19
SNB-75 = test system: SNB-75
SR = test system: SR
SW-620 = test system: SW-620
T47D = test system: T47D
TK-10 = test system: TK-10
U-251 = test system: U-251
UACC-257 = test system: UACC-257
UACC-62 = test system: UACC-62
UO-31 = test system: UO-31

Structure (SMILES): CN1CC2CN(Cc3ccccc3)CCN2c2cccnc21 (stereo not given)
- GI50 (786-0): 52.1 µM (inactive)
- GI50 (A498): 95.3 µM (inactive)
- GI50 (A549): > 100 µM (inactive)
- GI50 (ACHN): 45.2 µM (inactive)
- GI50 (BT-549): 33.3 µM (inactive)
- GI50 (CAKI-1): 93.1 µM (inactive)
- GI50 (CCRF-CEM): 32.8 µM (inactive)
- GI50 (COLO 205): 36.6 µM (inactive)
- GI50 (EKVX): 53 µM (inactive)
- GI50 (HCT-116): 10.6 µM (inactive)
- GI50 (HCT-15): 28.6 µM
- GI50 (HL-60): 29 µM (inactive)
- GI50 (HOP-62): > 100 µM (inactive)
- GI50 (HOP-92): 47.4 µM (inactive)
- GI50 (HT-29): 29.1 µM (inactive)
- GI50 (Hs-578T): 40.3 µM (inactive)
- GI50 (IGROV-1): 52.7 µM (inactive)
- GI50 (K562): 29.2 µM (inactive)
- GI50 (KM12): 23.9 µM (inactive)
- GI50 (LOX IMVI): 20.9 µM (inactive)
- GI50 (M14): 60.7 µM (inactive)
- GI50 (MCF7): 39.9 µM (inactive)
- GI50 (MDA-MB-231): 97.1 µM (inactive)
- GI50 (MDA-MB-435): 30.5 µM (inactive)
- GI50 (MDA-N): 38.6 µM (inactive)
- GI50 (MOLT-4): 35.6 µM (inactive)
- GI50 (Malme-3M): 47 µM (inactive)
- GI50 (NCI-H226): 57.7 µM (inactive)
- GI50 (NCI-H23): 39 µM (inactive)
- GI50 (NCI-H460): 39.1 µM (inactive)
- GI50 (NCI-H522): 28.8 µM (inactive)
- GI50 (NCI/ADR-RES): 32.1 µM (inactive)
- GI50 (OVCAR-3): 41.1 µM (inactive)
- GI50 (OVCAR-4): 82.6 µM (inactive)
- GI50 (OVCAR-5): > 100 µM (inactive)
- GI50 (OVCAR-8): 48.2 µM (inactive)
- GI50 (PC-3): 45.9 µM (inactive)
- GI50 (RPMI-8226): 27.5 µM (inactive)
- GI50 (RXF 393): > 100 µM (inactive)
- GI50 (SF-268): 54.3 µM (inactive)
- GI50 (SF-295): 89.5 µM (inactive)
- GI50 (SF-539): 62.8 µM (inactive)
- GI50 (SK-MEL-2): 89.7 µM (inactive)
- GI50 (SK-MEL-5): 31.1 µM (inactive)
- GI50 (SK-OV-3): > 100 µM (inactive)
- GI50 (SNB-19): 64.7 µM (inactive)
- GI50 (SNB-75): 41.3 µM (inactive)
- GI50 (SR): 25.8 µM (inactive)
- GI50 (SW-620): 35.2 µM (inactive)
- GI50 (T47D): 53.7 µM (inactive)
- GI50 (TK-10): > 100 µM (inactive)
- GI50 (U-251): 42.8 µM (inactive)
- GI50 (UACC-257): 40.8 µM (inactive)
- GI50 (UACC-62): 68.4 µM (inactive)
- GI50 (UO-31): 69.3 µM (inactive)
